Assay results published in patent US7297523B2, “Human elongase genes and uses thereof” (Xenon Pharmaceuticals Inc., priority 2000, dated 2007).

Assays:
[1] = biological target: T1, ELG3/V5-His (Homo sapiens, UniProt Q9NXB9); test: Elongation of [1-14C]20:5n-3 in microsomes of yeast expressing ELG3/V5-His; assay type: biochemical; conditions: for % conversion 24:5n-3 / % conversion 22:5n-3 / % conversion Total: substrate [1-14C]20:5n-3 7.2 μM; for % conversion 24:5n-3: control 5.0; for % conversion 22:5n-3: control 13.7; for % conversion Total: control 18.7
T1 construct: made in house; host or cells: Saccharomyces cerevisiae (INVSc1), microsomal fraction
T1 sequence (Q9NXB9 1-296): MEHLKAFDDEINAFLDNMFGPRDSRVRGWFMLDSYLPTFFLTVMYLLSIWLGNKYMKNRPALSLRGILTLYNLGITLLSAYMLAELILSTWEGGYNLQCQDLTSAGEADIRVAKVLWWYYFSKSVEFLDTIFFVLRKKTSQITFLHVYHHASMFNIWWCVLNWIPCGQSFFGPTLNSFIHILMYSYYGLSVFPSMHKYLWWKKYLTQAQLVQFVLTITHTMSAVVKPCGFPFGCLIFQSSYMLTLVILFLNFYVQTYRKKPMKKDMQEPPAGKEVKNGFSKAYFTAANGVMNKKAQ
Protocol: A sulphoxide derivative of S-propylbutylethylthiocarbamate (pebulate sulphoxide) was obtained from Zeneca Agrochemicals, UK, and dissolved in ethanol at a concentration of 5 mM.
A 51 culture of Saccharomyces cerevisiae transformed with pTh1017.1 encoding ELG3/V5-His was started with a cell density of approximately 3.2×10^5 cells/ml (O.D.600 0.4) using SC-U medium with 1% raffinose. After 8 h of incubation at 30° C. in an orbital shaker at 270 rpm, galactose was added to a final concentration of 2%. Yeast were incubated for an additional 12 h until they were harvested by centrifugation at 2060×g for 10 minutes at 4° C. and washed with water. The cell pellet was resuspended in ⅓ of its volume in a pH 7.2 isolation buffer (80 mM Hepes-KOH, 10 mM KCl, 320 mM sucrose, 2 mM PMSF and a protease inhibitor cocktail). The cell suspension was poured into a mortar containing liquid N2 and ground with sand using a ceramic pestle. The yeast powder was transferred to a conical test tube, to which ⅔ of the pellet volume of isolation buffer was added. The sand was removed by centrifugation at 228×g for 1 min and the suspension centrifuged at 10,000×g for 20 min to separate cell debris, nuclei and mitochondria. The supernatant was centrifuged at 106,000×g for 1.5 h to obtain the microsomal pellet, which was resuspended in storage buffer (80 mM Hepes-KOH, 10 mM KCl, 320 mM sucrose, 1 mM PMSF and a protease inhibitor cocktail) to a final protein concentration of 20 μg/μl. The protein concentration was measured by the method of Lowry et al. (1951, .J Biol. Chem., 193: 265-275) with bovine serum albumin as standard.
The activity of ELG3/V5-His was determined by measuring the conversion of [1-^14C]20:5n-3 to [1-^14C]22:5n-3 and [1-^14C]24:5n-3. Reactions were started by adding 500 μg of yeast microsomal protein to pre-incubated tubes containing 0.20 μCi of the substrate fatty acid at a final concentration of 7.2 μM in 0.25 ml of 80 mM Hepes-KOH (pH 7.2) with 43 mM MgCl2, 1.0 mM ATP,500 μM NADPH, 10 μM coenzyme A, 100 μM […] (as lithium salt) and pebulate sulphoxide at concentrations that ranged between 1 to 100 μM. The tubes were vortexed vigorously and after 30 min incubation at 37° C. in a shaking water bath, the reactions were stopped by the addition of 2 ml of 10% (w/v) KOH in ethanol. Lipids in the incubation mixture were saponified at 80° C. for 45 min under N2. The samples were then left in ice for 5 min before acidification with 750 μl of concentrated HCl. […] The fatty acid methyl esters were analyzed by HPLC as described in Example 19.
The enzyme activity was expressed in percent conversion of radiolabelled 20:5n-3 into its elongation products. Alternatively, it can be expressed in pmol of the fatty acids produced/mg microsomal protein/min.

[2] = system: rat liver elongase; test: Elongation of [1-14C]20:5n-3 in rat liver microsomes; assay type: biochemical; conditions: for % conversion 24:6n-3: delta-6-desaturation product of 24:5n-3, control 9.1; for % conversion 22:5n-3 / % conversion 24:5n-3 / % conversion Total: substrate [1-14C]20:5n-3; for % conversion 22:5n-3: control 11.6; for % conversion 24:5n-3: control 39.7; for % conversion Total: control 60.4
Protocol: Wistar rats under light halothane (15% in mineral oil) anesthesia were sacrificed by exsanguination during periods of high enzyme activity. Livers were immediately rinsed with cold 0.9% NaCl solution, weighed and minced with scissors. All procedures were performed at 4° C. unless specified-otherwise. Livers were homogenized in a solution (1:3 w/v) containing 0.25 M sucrose, 62 mM potassium phosphate buffer (pH 7.0), 0.15 M KCl, 1.5 mM N-acetylcysteine, 5 mM MgCl2, and 0.1 mM EDTA using 4 strokes of a Potter-Elvehjem tissue homogenizer. The homogenate was centrifuged at 10,400×g for 20 min to pellet mitochondria and cellular debris. The supernatant was filtered through a 3-layer cheesecloth and centrifuged at 105,000×g for 60 min. The microsomal pellet was gently resuspended in the same homogenization solution with a small glass/teflon homogenizer and stored at −80° C. The absence of mitochondrial contamination was enzymatically assessed as described elsewhere (Kilberg, M. S. and Christensen H. N., 1979, Biochemistry, 18: 1525-1530). The protein concentration was measured by the method of Lowry et al (1951, J. Biol. Chem., 193: 265-275) with bovine serum albumin as standard.
Reactions were performed using 500 μg of rat liver microsomal protein with the same concentrations of pebulate sulphoxide, radiolabelled fatty acid, conditions and procedures described in Example 21.
The enzyme activity was expressed in percent conversion of radiolabelled 20:5n-3 into its elongation and final delta-6-desaturation products (i.e., 22:5n-3, 24:5n-3 and 24:6n-3).

[3] = system: 18:3n-6; test: Elongation of [1-14C]18:3n-6 in yeast expressing human elongases (RP-HPLC); conditions: untagged elongase, 25 μM substrate; for Percent Elongation of 18:3n-6 to 20:3: product 20:3n-6
Description: (§1) For the expression of ELG1, ELG2, ELG3, ELG4, ELG5, ELG6 or ELG7 the yeast were transformed with pTh1009.1, pTh1014.1, pTh1015.1, pTh1021.1, pTh1018.1, pTh1041.1 or pTh1044.1, respectively. For the expression of ELG1/V5-His, ELG2/V5-His, ELG3/V5-His, ELG4/V5-His, ELG5/V5-His, ELG6/V5 -His or ELG7/V5-His the yeast were transformed with pTh1009.2, pTh1014.2, pTh1017.1, pTh1021.2, pTh1019.1, pTh1042.1 or pTh1045.1, respectively. Recombinant yeast cells were selected on SC-U medium.
(§2) Transformed yeast (approximately 3.2×10^6 cells/ml; O.D.600 0.4) were incubated in a 125 ml Erlenmeyer containing 10 ml of SC-U medium with 1% raffinose, 1% tergitol and 25 μM of the lithium salts of either [1-^14C]18:3n-3 (1 μCi), [1-^14C]18:3n-6 (1 μCi), [1-^14C]20:4n-6 (2 μCi), or [1-^14C]20:5n-3 (2 μCi). After 4 h incubation in an orbital incubator at 270 rpm and 30° C., cells reached the log phase and the transgene, expression was induced with galactose 30° C., cells reached the log phase and the transgene expression was induced with galactose (2% final concentration). The yeast were incubated for an additional 19 h and then harvested by centrifugation at 5000×g for 10 minutes at 4° C.
(§3) Cells were washed with Tris-HCl buffer (100 mM, pH 8.0) containing 0.1% BSA and total lipids were extracted as described below. The radioactivity from aliquots of the incubation medium, supernatant and cells was determined by liquid scintillation counting using a LS6500-Scintillation System (Beckman).
(§4) Alternatively, cells were resuspended in 1.5 ml of water and saponified with 2 ml of 10% KOH in ethanol. The total lipid extracts or the free fatty acids from the saponified samples were methylated using boron trifluoride in methanol at 90° C. for 30 min. The resultant methyl esters (FAME) were analyzed as described below.
(§5) Analyses of radiolabelled FAME were carried out on a Hewlett Packard 1090, series II chromatograph equipped with a diode array detector set at 205 nm, a radioisotope detector (model 171, Beckman, CA) with a solid scintillation cartridge (97% efficiency for ^14C-detection) and a reverse phase ODS (C-18) Beckman column (250 mm×4.6 mm i.d.; 5 μm particle size) attached to a pre-column with a μBondapak C-18 (Beckman) insert. FAME were separated isocratically with acetonitrile/water (95.5 v/v) at a flow rate of 1 ml/min and were identified by comparison with authentic standards. Alternatively, the eluted FAME were collected and the solvent evaporated. FAME were re-dissolved in hexane for further analysis by gas chromatography.

[4] = system: 20:4n-6; test: Elongation of [1-14C]20:4n-6 in yeast expressing human elongases (RP-HPLC); conditions: for Percent Elongation of 20:4n-6 to 22:4: product 22:4n-6
Description: as §1, §2, §3, §4, §5

[5] = system: 18:3n-3; test: Elongation of [1-14C]18:3n-3 in yeast expressing human elongases (RP-HPLC); conditions: for Percent Elongation of 18:3n-3 to 20:3: product 20:3n-3
Description: as §1, §2, §3, §4, §5

[6] = system: 20:5n-3; test: Elongation of [1-14C]20:5n-3 in yeast expressing human elongases (RP-HPLC); conditions: untagged elongase, 25 μM substrate
Description: as §1, §2, §3
Alternatively, cells were resuspended in 1.5 ml of water and saponified with 2 ml of 10% KOH in ethanol. The total lipid extracts or the free fatty acids from the saponified samples were methylated using boron trifluoride in methanol at 90° C. for 30 min. The resultant methyl esters (FAME) were analyzed as described below. […]

[7] = untagged elongase, 25 μM substrate

Which results are given for `CCCCN(CC)C(=O)[S+]([O-])CCC` (centres unmarked) [Pebulate sulphoxide, sulphoxide derivative of S-propylbutylethylthiocarbamate]?
% conversion 24:5n-3 ([1]; 1 μM): 5.6%; % conversion 22:5n-3 ([1]; 1 μM): 13.8%; % conversion Total ([1]; 1 μM): 19.4%; % conversion 24:5n-3 ([1]; 10 μM): 6.6%; % conversion 22:5n-3 ([1]; 10 μM): 12.8%; % conversion Total ([1]; 10 μM): 19.4%; % conversion 24:5n-3 ([1]; 50 μM): 4.6%; % conversion 22:5n-3 ([1]; 50 μM): 11.3%; % conversion Total ([1]; 50 μM): 15.9%; reduction of elongation (ELG3/V5-His activity) ([1]; 100 μM, 20:5n-3 as substrate): approximately 27%; % conversion 24:5n-3 ([1]; 100 μM): 4.3%; % conversion 22:5n-3 ([1]; 100 μM): 9.4%; % conversion Total ([1]; 100 μM): 13.7%; % conversion 24:6n-3 ([2]; 1 μM): 9.6%; % conversion 22:5n-3 ([2]; 1 μM): 12.5%; % conversion 24:5n-3 ([2]; 1 μM): 47.5%; % conversion Total ([2]; 1 μM): 69.3%; % conversion 24:6n-3 ([2]; 10 μM): 10.9%; % conversion 22:5n-3 ([2]; 10 μM): 12.5%; % conversion 24:5n-3 ([2]; 10 μM): 47.2%; % conversion Total ([2]; 10 μM): 70.7%; % conversion 24:6n-3 ([2]; 50 μM): 7.9%; % conversion 22:5n-3 ([2]; 50 μM): 12.2%; % conversion 24:5n-3 ([2]; 50 μM): 48.7%; % conversion Total ([2]; 50 μM): 68.8%; reduction of elongation (rat liver elongase activity) ([2]; 100 μM, 20:5n-3 as substrate): approximately 30%; % conversion 24:6n-3 ([2]; 100 μM): 4.5%; % conversion 22:5n-3 ([2]; 100 μM): 10.2%; % conversion 24:5n-3 ([2]; 100 μM): 28.0%; % conversion Total ([2]; 100 μM): 42.7%

B1: ELG4: human PUFA elongase (SEQ ID NO: 5) expressed in yeast from plasmid pTh1021.1 (protein)
chain: MAFSDLTSRTVHLYDNWIKDADPRVEDWLLMSSPLPQTILLGFYVYFVTSLGPKLMENRKPFELKKAMITYNFFIVLFSVYMCYEFVMSGWGIGYSFRCDIVDYSRSPTALRMARTCWLYYFSKFIELLDTIFFVLRKKNSQVTFLHVFHHTIMPWTWWFGVKFAAGGLGTFHALLNTAVHVVMYSYYGLSALGPAYQKYLWWKKYLTSLQLVQFVIVAIHISQFFFMEDCKYQFPVFACIIMSYSFMFLLLFLHFWYRAYTKGQRLPKTVKNGTCKNKDN
modifications: human
What does the source list for B1?
Percent Elongation of 18:3n-6 to 20:3 [3]: 20%; Percent Elongation of 18:3n-6 to 22:3 ([3]; product 22:3n-6): 4%; Percent Elongation of 20:4n-6 to 22:4 ([4]; V5-His tagged elongase): 12%; Percent Elongation of 20:4n-6 to 22:4 [4, 7]: 24%; Percent Elongation of 20:4n-6 to 24:4 ([4]; untagged elongase, 25 μM substrate, product 24:4n-6): 2%; Percent Elongation of 18:3n-3 to 20:3 [5, 7]: 10%; Percent Elongation of 18:3n-3 to 22:3 ([5]; untagged elongase, 25 μM substrate, product 22:3n-3): 4%; Percent Elongation of 20:5n-3 to 22:5 ([6]; product 22:5n-3): 15%; Percent Elongation of 20:5n-3 to 24:5 ([6]; product 24:5n-3): 3%

B2: ELG7: human PUFA elongase (SEQ ID NO: 12) expressed in yeast from plasmid pTh1044.1 (protein)
chain: MGLLDSEPGSVLNVVSTALNDTVEFYRWTWSIADKRVENWPLMQSPWPTLSISTLYLLFVWLGPKWMKDREPFQMRLVLIIYNFGMVLLNLFIFRELFMGSYNAGYSYICQSVDYSNNVHEVRIAAALWWYFVSKGVEYLDTVFFILRKKNNQVSFLHVYHHCTMFTLWWIGIKWVAGGQAFFGAQLNSFIHVIMYSYYGLTAFGPWIQKYLWWKRYLTMLQLIQFHVTIGHTALSLYTDCPFPKWMHWALIAYAISFIFLFLNFYIRTYKEPKKPKAGKTAMNGISANGVSKSEKQLMIENGKKQKNGKAKGD
modifications: human
With B2 as the molecule, how does the “Percent Elongation of 18:3n-3 to 20:3” value ([5]; V5-His tagged elongase) read?
The value was 4%.

And the “Percent Elongation of 18:3n-3 to 20:3” value [5, 7]?
Its value is 5%.

B3: ELG6: human PUFA elongase (SEQ ID NO: 9) expressed in yeast from plasmid pTh1041.1 (protein)
chain: MVTAMNVSHEVNQLFQPYNFELSKDMRPFFEEYWATSFPIALIYLVLIAVGQNYMKERKGFNLQGPLILWSFCLAIFSILGAVRMWGIMGTVLLTGGLKQTVCFINFIDNSTVKFWSWVFLLSKVIELGDTAFIILRKRPLIFIHWYHHSTVLVYTSFGYKNKVPAGGWFVTMNFGVHAIMYTYYTLKAANVKPPKMLPMLITSLQILQMFVGAIVSILTYIWRQDQGCHTTMEHLFWSFILYMTYFILFAHFFCQTYIRPKVKAKTKSQ
modifications: human
Which results are given for B3?
Percent Elongation of 18:3n-6 to 20:3 [3]: 2%; Percent Elongation of 18:3n-3 to 20:3 ([5]; V5-His tagged elongase): 3%; Percent Elongation of 18:3n-3 to 20:3 [5, 7]: 3%
